Laboratory results reported in patent publication US20260234150A1, “COMPOUND FOR INHIBITING NLRP3, PREPARATION METHOD, AND USE” (DOVETREE MEDICINES UNUS, INC., priority 2023, published 2026).

What was measured:
[1] = molecular target: T1, His6-Flag-TEV-NLRP3 (134-1036) (Homo sapiens, UniProt Q96P20); test: NLRP3 fluorescence polarization (FP) binding assay, competition with probe NP3-301; conditions: competition with NP3-301 for binding to NLRP3 (134-1036), 30 nM protein
T1 construct: fused on or other part: N-terminal His6 tag, Flag tag and TEV cleavage site
T1 sequence (Q96P20 134-1036 limits assumed): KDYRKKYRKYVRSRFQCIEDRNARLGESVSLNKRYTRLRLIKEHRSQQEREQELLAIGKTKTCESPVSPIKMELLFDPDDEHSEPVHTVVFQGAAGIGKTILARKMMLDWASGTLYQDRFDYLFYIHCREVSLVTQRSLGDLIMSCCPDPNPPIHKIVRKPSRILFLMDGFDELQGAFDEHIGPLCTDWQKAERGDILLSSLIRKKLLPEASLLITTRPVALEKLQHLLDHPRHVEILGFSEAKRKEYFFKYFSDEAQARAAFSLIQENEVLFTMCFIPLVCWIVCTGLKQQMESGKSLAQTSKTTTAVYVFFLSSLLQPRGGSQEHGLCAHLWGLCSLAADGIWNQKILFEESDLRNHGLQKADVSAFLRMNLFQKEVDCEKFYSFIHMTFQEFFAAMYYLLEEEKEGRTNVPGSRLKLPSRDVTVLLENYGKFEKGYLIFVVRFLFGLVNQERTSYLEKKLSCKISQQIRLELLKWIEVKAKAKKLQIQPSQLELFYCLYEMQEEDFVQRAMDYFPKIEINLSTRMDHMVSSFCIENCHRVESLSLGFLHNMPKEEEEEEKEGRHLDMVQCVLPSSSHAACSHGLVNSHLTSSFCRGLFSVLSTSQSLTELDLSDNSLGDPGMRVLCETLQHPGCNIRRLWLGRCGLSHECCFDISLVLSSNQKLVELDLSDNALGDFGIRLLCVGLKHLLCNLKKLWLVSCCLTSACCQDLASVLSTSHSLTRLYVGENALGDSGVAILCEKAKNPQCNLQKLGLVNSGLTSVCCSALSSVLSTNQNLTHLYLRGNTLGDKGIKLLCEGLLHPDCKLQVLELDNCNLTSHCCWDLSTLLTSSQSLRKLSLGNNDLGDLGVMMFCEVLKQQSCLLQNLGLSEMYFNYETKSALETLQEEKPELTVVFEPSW
Description: This experiment uses fluorescence polarization technology to detect and evaluate the binding assay.
The fluorescent probe used in this assay is the compound NP3-301 in the Journal of Molecular Biology (2021) 433, 167309, which was synthesized with reference to this literature.
His6-Flag-TEV-NLRP3 (134-1036) protein (SEQ NO. 1) was purchased from Kaihuiruizhi Biotech (Shanghai) Co., Ltd. (ChemPartner), and was customed for expression.
Prepare 1× assay buffer: 50 mM Hepes, pH 7.4, 150 mM NaCl, 2.5 mM MgCl2, 0.005% Tween-20, 1 mM TCEP, 100 μM ATP.
First, 2.5 μL of 4× compound solution was added to a black shallow 384-well plate (Greiner, 784076), the shallow well plate was sealed, and centrifuged at 1000 rpm for 1 min; then 2× NLPR3 protein solution (final concentration of 30 nM) was added, the shallow well plate was sealed, centrifuged at 1000 rpm for 1 min, and incubated at room temperature for 60 min. Finally, 2.5 μL of 4× NP3-301 (final concentration of 0.5 nM) was added, the shallow well plate was sealed, centrifuged at 1000 rpm for 1 min, and incubated at room temperature for 30 min. Envision was used to read the fluorescence polarization values of λex=485+20 nm and kem=535+25 nm. GraphPad Prism 9.5.0 was used to analyze the data, and the IC50 value of the competition between the compound and NP3-301 for binding to His6-Flag-TEV-NLRP3 (134-1036) was fitted by four-parameter logistic. The compounds of the present disclosure have good NLRP3 binding activity, and the test results of some representative compounds are shown in Table 1.

[2] = test system: IL-1β secretion of THP-1 cells; test: Effect of NLRP3 inhibitor on IL-1β secretion of THP-1 cells (AlphaLISA); assay type: cell-based; conditions: Homo sapiens; PMA, LPS and Nigericin stimulated THP-1 cells, IL-1β in supernatant; read-out: IC50 (nM), THP-1 cells to detect NLRP3 inhibitors
Description: This experiment used the PerkinElmer AlphaLISA_human_IL1β kit (AL220 C/F). The detection buffer was RPMI-1640+10FBS. AlphaLISA Immunoassay Buffer, AlphaLISA Anti-IL1β Acceptor beads, Streptavidin (SA)-coated Donor beads, and Biotinylated Antibody Anti-IL1β were all included in the kit.
The density of THP1 cells was adjusted to 4×10^5 cells/mL, PMA (final concentration 50 nM) was added, inoculated into 96-well flat-bottom plates at 200 μL/well, and stimulated overnight at 37° C., 5% CO2 (try to <16h). The next day, the supernatant was discarded, and the flat washed twice with DPBS ([…]/time). Then LPS solution (final concentration of 100 ng/ml) was added at 198 μL/well, incubated at 37° C., 5% CO2 for 3h. 1 μL of the corresponding concentration of compounds was added to each well according to the experimental MAP, incubated at 37° C., 5% CO2 for 1 h. 1 μL Nigericin (final concentration of […]) was added to each well, incubated overnight at 5% CO2 (>18h). On the third day, 5 μL of supernatant was taken, diluted 20 times, and the content of IL-Iβ in the supernatant was detected by Human Interleukin 1 beta (IL1β) Kit. Envision was used to read the AlphaLISA test value of Ex=680/[…]. GraphPad Prism 9.5.0 was used to analyze the data, and the IC50 value of the compound for IL-Iβ antagonism was fitted by four-parameter Logistic.

Structure (SMILES) | IC50 [1] [µM] | IC50 [2] [nM]
Cc1cc(C(F)(F)F)cc(O)c1-c1cc(C)c2nc(N3CCOCC3)nn2n1 [Compound 424] | ≤ 0.1 | < 50
Cc1cc(C(F)(F)F)cc(O)c1-c1ccc2nc(N3CCS(=O)(=O)CC3)nn2n1 [Compound 422] | ≤ 0.1 | 100 to 500
Cc1cc(C(F)(F)F)cc(O)c1-c1ccc2oc(N[C@@H]3CCCN(CCO)C3)nc2n1 [Compound 404] | ≤ 0.1 | < 50
Cc1cc(C(F)(F)F)cc(O)c1-c1cc(C)n2nc(N[C@H]3CCCN(CCO)C3)nc2n1 [Compound 460] | ≤ 0.1 | < 50
CCN1CCC[C@@H](Nc2nc3nc(-c4c(C)cc(C(F)(F)F)cc4O)ccn3n2)C1 [Compound 448] | ≤ 0.1 | < 50
Cc1cc(C(F)(F)F)cc(O)c1-c1ccc2oc(NC[C@@H]3COCCN3C(=O)C(F)(F)F)nc2n1 [Compound 247] | ≤ 0.1 | 50 to 100
CCN1CCC[C@H](Nc2nc3nc(-c4c(C)cc(C(F)(F)F)cc4O)cc(C)n3n2)C1 [Compound 462] | ≤ 0.1 | < 50
Cc1cc(C(F)(F)F)cc(O)c1-c1ccc2oc(NC[C@@H]3COCCN3C(=O)C3CC3)nc2n1 [Compound 257] | ≤ 0.1 | < 50
CCN1CCC[C@@H](n2ccc3cc(-c4c(C)cc(C(F)(F)F)cc4O)nnc32)C1 [Compound 11-a] | ≤ 0.1 | < 50
CCS(=O)(=O)N1CCN(c2nc3nc(-c4c(C)cc(C(F)(F)F)cc4O)ccc3o2)C[C@@H]1C [Compound 394] | ≤ 0.1 | 50 to 100
CCN1CCC[C@@H](Nc2nc3c(C)cc(-c4c(C)cc(C(F)(F)F)cc4O)nn3n2)C1 [Compound 447] | ≤ 0.1 | < 50
Cc1cc(C(F)(F)F)cc(O)c1-c1ccc2[nH]c(NCC(C)(C)O)nc2n1 [Compound 6] |  | 100 to 500
Cc1cc(C(F)(F)F)cc(O)c1-c1ccc2oc(N)nc2n1 [Compound 14] | ≤ 0.1 | 50 to 100
Cc1cc(C(F)(F)F)cc(O)c1-c1cc(C)n2nc(N[C@@H]3CCCN(C)C3)nc2n1 [Compound 443] | ≤ 0.1 | < 50
CCN1CCCC(c2nc3nc(-c4c(C)cc(C(F)(F)F)cc4O)ccc3[nH]2)C1 (stereo not drawn) [Compound 10] | ≤ 0.1 | 100 to 500
CCS(=O)(=O)N1CCN(c2nc3nc(-c4c(C)cc(C(F)(F)F)cc4O)ccc3o2)CC1 [Compound 388] | ≤ 0.1 | 50 to 100
Cc1cc(C(F)(F)F)cc(O)c1-c1cc(C)c2nc(N[C@@H]3CCCN(C)C3)nn2n1 [Compound 446] | ≤ 0.1 | < 50
Cc1cc(C(F)(F)F)cc(O)c1-c1ccc2oc(NC[C@@H]3COCCN3C(=O)C(C)C)nc2n1 [Compound 248] | ≤ 0.1 | 100 to 500
Cc1cc(C(F)(F)F)cc(O)c1-c1ccc2oc(NC[C@@H]3COCCN3S(=O)(=O)C3CC3)nc2n1 [Compound 260] | ≤ 0.1 | < 50
CC(=O)NC[C@@H]1COCCN1c1nc2nc(-c3c(C)cc(C(F)(F)F)cc3O)cc(C)n2n1 [Compound 441] | ≤ 0.1 | < 50
CCC(=O)N1CCOC[C@H]1CNc1nc2nc(-c3c(C)cc(C(F)(F)F)cc3O)ccc2o1 [Compound 250] | ≤ 0.1 | 100 to 500
CCN1C[C@H](F)C[C@@H](Nc2nc3nc(-c4c(C)cc(C(F)(F)F)cc4O)ccc3o2)C1 [Compound 397] | ≤ 0.1 | 100 to 500
Cc1cc(C(F)(F)F)cc(O)c1-c1cc(C)c2nc(N[C@@H]3CCCN(CCO)C3)nn2n1 [Compound 456] | ≤ 0.1 | < 50
Cc1cc(C(F)(F)F)cc(O)c1-c1ccc2oc(NC[C@@H](C)O)nc2n1 [Compound 413] | ≤ 0.1 | 50 to 100

Structure (SMILES) | IC50 [1] [µM] | IC50 [2] [nM]
Oc1cc(Cl)cc(O)c1-c1ccc2oc(N3CCOCC3)nc2n1 [Compound 376] | ≤ 0.1 | < 50
Cc1cc(Cl)cc(O)c1-c1ccc2oc(N3CCS(=O)(=O)CC3)nc2n1 [Compound 387] | ≤ 0.1 | 50 to 100
Cc1cc(C(F)(F)F)cc(O)c1-c1ccc2[nH]c(CC(N)=O)nc2n1 [Compound 5] | ≤ 0.1 | 100 to 500
CC(=O)N1CCOC[C@H]1CNc1nc2nc(-c3c(C)cc(C(F)(F)F)cc3O)cc(C)c2o1 [Compound 451] | ≤ 0.1 | 50 to 100
Cc1cc(C(F)(F)F)cc(O)c1-c1ccc2oc(N[C@@H]3CCCN(C(C)C)C3)nc2n1 [Compound 400] | ≤ 0.1 | < 50
Cc1cc(C(F)(F)F)cc(O)c1-c1ccn2nc(N[C@@H]3CCCN(C)C3)nc2n1 [Compound 444] | ≤ 0.1 | < 50
CCN1CCCC(N2CC(=O)Nc3cc(-c4c(C)cc(C(F)(F)F)cc4O)nnc32)C1 (stereo not drawn) [Compound 12] | ≤ 0.1 | 100 to 500
CC(=O)N1CCOC[C@H]1CNc1nc2nc(-c3c(C)cc(Cl)cc3O)ccc2o1 [Compound 253] | ≤ 0.1 | < 50
Cc1cc(C(F)(F)F)cc(O)c1-c1cc(C)n2nc(N3CCOCC3)nc2n1 [Compound 440] | ≤ 0.1 | 50 to 100
Cc1cc(C(F)(F)F)cc(O)c1-c1ccc2oc(N3CCN(S(=O)(=O)C4CC4)CC3)nc2n1 [Compound 392] | ≤ 0.1 | < 50
Cc1cc(C(F)(F)F)cc(O)c1-c1ccc2oc(N3CCN(S(C)(=O)=O)CC3)nc2n1 [Compound 390] | ≤ 0.1 | < 50
Cc1cc(C(F)(F)F)cc(O)c1-c1ccc2nc(N3CCOCC3)nn2n1 [Compound 423] | ≤ 0.1 | 100 to 500
Cc1cc(C(F)(F)F)cc(O)c1-c1ccc2oc(N3CC4CCC(C3)O4)nc2n1 [Compound 381] | ≤ 0.1 | 100 to 500
Cc1cc(C(F)(F)F)cc(O)c1-c1ccc2[nH]c(C3CCCNC3)nc2n1 (stereo not drawn) [Compound 9] | ≤ 0.1 | 50 to 100
CC(=O)NC[C@@H]1COCCN1c1nc2c(C)cc(-c3c(C)cc(C(F)(F)F)cc3O)nn2n1 [Compound 442] | ≤ 0.1 | < 50
CCN1CCC[C@@H](N2CC(=O)Nc3cc(-c4c(C)cc(C(F)(F)F)cc4O)nnc32)C1 [Compound 12-a] | ≤ 0.1 | < 50
Cc1cc(C(F)(F)F)cc(O)c1-c1ccc2oc(NC[C@@H]3COCCN3C(=O)C(F)F)nc2n1 [Compound 249] | ≤ 0.1 | 100 to 500
CCN1CCC[C@@H](Nc2nc3ccc(-c4c(C)cc(C(F)(F)F)cc4O)nn3n2)C1 [Compound 439] | ≤ 0.1 | < 50
Cc1cc(C(F)(F)F)cc(O)c1-c1ccc2oc(N[C@@H]3CCCN(S(C)(=O)=O)C3)nc2n1 [Compound 408] | ≤ 0.1 | 
CCN1CCCC(n2ccc3cc(-c4c(C)cc(C(F)(F)F)cc4O)nnc32)C1 (stereo not drawn) [Compound 11] | ≤ 0.1 | < 50
Cc1cc(C(F)(F)F)cc(O)c1-c1ccc2oc(N[C@@H]3COCC[C@H]3O)nc2n1 [Compound 81] | 0.1 to 0.5 | 
CCN1CCC[C@@H](Nc2nc3ccc(-c4c(C)cc(F)cc4O)nn3n2)C1 [Compound 449] | ≤ 0.1 | 
Cc1cc(C(F)(F)F)cc(O)c1-c1ccc2nc(N)nn2n1 [Compound 13] | 0.5 to 1 | 
Cc1cc(C(F)(F)F)cc(O)c1-c1ccc2oc(N3CC4CC(C3)O4)nc2n1 [Compound 378] | 0.1 to 0.5 | 
